Reference: patent US10857149B2, “Liquid formulations of salts of 1-[2-(2,4-dimethylphenylsulfanyl)phenyl]-piperazine” (H. Lundbeck A/S, priority 2009, dated 2020)
Entries after “also recorded” stand apart in the source; their conditions may differ. Counter-ions that a name gives are not always drawn. Like-named read-outs stand apart in the source and are kept apart here.

Experiments:
serotonin transporter = serotonin transporter (Homo sapiens, UniProt P31645); conditions: cited from earlier work
[1] = room temperature, previously known salt forms, Table 2 (WO 2008/113359), cited from earlier work
5-HT3 receptor = target: T1, 5-HT3 receptor (Homo sapiens, UniProt P46098); conditions: listed as compound I; cited from earlier work
T1 sequence (P46098 24-478): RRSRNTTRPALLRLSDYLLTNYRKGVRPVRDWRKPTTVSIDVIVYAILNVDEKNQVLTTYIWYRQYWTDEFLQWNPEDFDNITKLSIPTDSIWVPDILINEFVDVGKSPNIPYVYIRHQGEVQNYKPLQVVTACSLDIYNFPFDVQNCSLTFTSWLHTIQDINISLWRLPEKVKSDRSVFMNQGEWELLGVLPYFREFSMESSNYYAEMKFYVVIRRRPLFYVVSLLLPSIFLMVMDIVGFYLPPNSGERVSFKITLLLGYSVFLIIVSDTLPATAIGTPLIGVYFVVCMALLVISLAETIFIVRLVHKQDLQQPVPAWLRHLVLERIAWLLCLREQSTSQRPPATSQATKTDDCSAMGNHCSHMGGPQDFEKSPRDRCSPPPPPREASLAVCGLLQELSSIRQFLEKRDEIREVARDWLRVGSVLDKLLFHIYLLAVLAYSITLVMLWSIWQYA

[2] = tested on: extracellular levels of serotonin, noradrenaline, dopamine and acetylcholine; conditions: rat brains; cited from earlier work
[3] = Crystal form behaviour on exposure to water / aqueous slurry; assay type: physicochemical; conditions: exposed to water / aqueous slurry
[4] = Room temperature (aqueous) solubility of salt forms; assay type: physicochemical; conditions: for aqueous solubility: concentration equivalent to free base; for Solubility: lactate forms, Table 1; for pH at the solubility value: printed in the solubility cell
[5] = depressed patients; cited from earlier work

Chain of serotonin transporter (P31645 whole entry): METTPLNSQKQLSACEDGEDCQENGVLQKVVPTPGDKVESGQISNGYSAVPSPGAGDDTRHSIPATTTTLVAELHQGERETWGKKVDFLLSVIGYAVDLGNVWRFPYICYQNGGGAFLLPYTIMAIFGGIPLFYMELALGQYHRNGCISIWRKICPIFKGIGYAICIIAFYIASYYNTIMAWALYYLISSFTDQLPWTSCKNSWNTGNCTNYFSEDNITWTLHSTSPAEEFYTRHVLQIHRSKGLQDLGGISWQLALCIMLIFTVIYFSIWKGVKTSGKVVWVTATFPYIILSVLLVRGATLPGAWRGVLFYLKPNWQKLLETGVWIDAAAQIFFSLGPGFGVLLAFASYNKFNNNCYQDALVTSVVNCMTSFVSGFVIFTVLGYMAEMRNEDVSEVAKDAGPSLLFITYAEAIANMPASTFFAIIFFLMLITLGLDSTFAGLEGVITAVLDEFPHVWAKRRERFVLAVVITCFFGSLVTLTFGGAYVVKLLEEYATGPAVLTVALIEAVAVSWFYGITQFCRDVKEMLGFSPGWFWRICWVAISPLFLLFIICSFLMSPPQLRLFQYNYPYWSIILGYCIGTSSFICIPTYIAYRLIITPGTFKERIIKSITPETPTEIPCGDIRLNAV

## Cc1ccc(Sc2ccccc2N2CCNCC2)c(C)c1 [Compound I, 1-[2-(2,4-dimethylphenylsulfanyl)phenyl]piperazine]
Serotonin transporter
  action at the serotonin transporter: inhibition
Serotonin transporter; listed as compound I
  action at the serotonin transporter: inhibitor
[1]; listed as Crystalline base
  Solubility: 0.1 mg base/mL
5-HT3 receptor
  action at the 5-HT3 receptor: antagonist; also recorded: antagonism
[2]
  extracellular levels of serotonin, noradrenaline, dopamine and acetylcholine: increase

## Cc1ccc(Sc2ccccc2N2CCNCC2)c(C)c1 [D-(−)-tartrate, 1-[2-(2,4-dimethyl-phenylsulfanyl)-phenyl] piperazine]
[1]
  Solubility: ~0.4 mg base/mL

## CC(O)C(=O)O.Cc1ccc(Sc2ccccc2N2CCNCC2)c(C)c1 [DL-lactate MH, 1-[2-(2,4-dimethyl-phenylsulfanyl)-phenyl] Piperazine, DL-Lactate]
[3]
  transformation of crystal form in water: transformed into the beta form in aqueous slurry

## CC(O)C(=O)O.Cc1ccc(Sc2ccccc2N2CCNCC2)c(C)c1 [DL-lactate α, 1-[2-(2,4-dimethyl-phenylsulfanyl)-phenyl] piperazine, DL-Lactate]
[3]; listed as α form
  transformation of crystal form in water: transformed into the β form in the aqueous slurry

## CC(O)C(=O)O.Cc1ccc(Sc2ccccc2N2CCNCC2)c(C)c1 [DL-lactate β, 1-[2-(2,4-dimethyl-phenylsulfanyl)-phenyl] Piperazine, DL-Lactate]
[4]
  aqueous solubility: 8 mg/mL
[4]; room temperature
  Solubility: 8 mg base/mL
  pH at the solubility value: 6

## CC(O)C(=O)O.Cc1ccc(Sc2ccccc2N2CCNCC2)c(C)c1 [DL-lactate γ, 1-[2-(2,4-dimethyl-phenylsulfanyl)-phenyl] Piperazine, DL-Lactate]
[3]; listed as γ form
  transformation of crystal form in water: transforms into the beta form in aqueous slurry

## Cc1ccc(Sc2ccccc2N2CCNCC2)c(C)c1 [Fumarate, 1-[2-(2,4-dimethyl-phenylsulfanyl)-phenyl] piperazine]
[1]
  Solubility: 0.4 mg base/mL

## Br.Cc1ccc(Sc2ccccc2N2CCNCC2)c(C)c1 [HBr addition salt]
[5]
  level of sleep and sexually related adverse events: surprisingly low level

## Cc1ccc(Sc2ccccc2N2CCNCC2)c(C)c1 [HBr, α-form, 1-[2-(2,4-dimethyl-phenylsulfanyl)-phenyl] piperazine]
[1]
  Solubility: 2.0 mg base/mL

## Cc1ccc(Sc2ccccc2N2CCNCC2)c(C)c1 [HBr, β-form, 1-[2-(2,4-dimethyl-phenylsulfanyl)-phenyl] piperazine]
[1]
  Solubility: 1.2 mg base/mL

## Cc1ccc(Sc2ccccc2N2CCNCC2)c(C)c1 [HCl, 1-[2-(2,4-dimethyl-phenylsulfanyl)-phenyl] piperazine]
[1]
  Solubility: 3.0 mg base/mL

## Cc1ccc(Sc2ccccc2N2CCNCC2)c(C)c1 [HCl, MH, 1-[2-(2,4-dimethyl-phenylsulfanyl)-phenyl] piperazine]
[1]
  Solubility: 2.0 mg base/mL

## Cc1ccc(Sc2ccccc2N2CCNCC2)c(C)c1 [L-(+)-tartrate, 1-[2-(2,4-dimethyl-phenylsulfanyl)-phenyl] piperazine]
[1]
  Solubility: ~0.4 mg base/mL

## C[C@H](O)C(=O)O.Cc1ccc(Sc2ccccc2N2CCNCC2)c(C)c1 [L-lactate AH1, 1-[2-(2,4-dimethyl-phenylsulfanyl)-phenyl] Piperazine, L-Lactate]
[3]; listed as AH1
  transformation of crystal form in water: transforms into monohydrate when exposed to water

## C[C@H](O)C(=O)O.Cc1ccc(Sc2ccccc2N2CCNCC2)c(C)c1 [L-lactate MH1, 1-[2-(2,4-dimethyl-phenylsulfanyl)-phenyl] Piperazine, L-Lactate]
[3]; listed as MH1
  transformation of crystal form in water: transforms into the MH2 in aqueous slurry
[4]; room temperature, MH1 transforms into MH2 in aqueous slurry
  Solubility, bound given for a form that could not be measured: na (>26) mg base/mL

## C[C@H](O)C(=O)O.Cc1ccc(Sc2ccccc2N2CCNCC2)c(C)c1 [L-lactate MH2, 1-[2-(2,4-dimethyl-phenylsulfanyl)-phenyl] Piperazine, L-Lactate]
[4]
  aqueous solubility: 26 mg/mL
[4]; room temperature
  Solubility: 26 mg base/mL
  pH at the solubility value: 5.2

## Cc1ccc(Sc2ccccc2N2CCNCC2)c(C)c1 [Maleate, 1-[2-(2,4-dimethyl-phenylsulfanyl)-phenyl] piperazine]
[1]
  Solubility: ~1 mg base/mL

## Cc1ccc(Sc2ccccc2N2CCNCC2)c(C)c1 [Meso-tartrate, 1-[2-(2,4-dimethyl-phenylsulfanyl)-phenyl] piperazine]
[1]
  Solubility: ~0.7 mg base/mL

## Cc1ccc(Sc2ccccc2N2CCNCC2)c(C)c1 [Mesylate, 1-[2-(2,4-dimethyl-phenylsulfanyl)-phenyl] piperazine]
[1]
  Solubility: >45 mg base/mL

## Cc1ccc(Sc2ccccc2N2CCNCC2)c(C)c1 [Nitrate, 1-[2-(2,4-dimethyl-phenylsulfanyl)-phenyl] piperazine]
[1]
  Solubility: ~0.8 mg base/mL

## Cc1ccc(Sc2ccccc2N2CCNCC2)c(C)c1 [Phosphate, 1-[2-(2,4-dimethyl-phenylsulfanyl)-phenyl] piperazine]
[1]
  Solubility: ~1 mg base/mL

## Cc1ccc(Sc2ccccc2N2CCNCC2)c(C)c1 [Sulphate, 1-[2-(2,4-dimethyl-phenylsulfanyl)-phenyl] piperazine]
[1]
  Solubility: ~0.1 mg base/mL
